Assay [1] concerns the target T1, TdcF (Escherichia coli, UniProt P0AGL2).
T1 construct: recombinant, N-terminal His-tag not cleaved; homotrimer, 14 kDa subunits; ligand sites at subunit interfaces; Cys-36 seen as cysteine sulfonic acid in crystals
Briefly: X-ray crystal structure, crystal soak. The assay is classed as binding. As to conditions: 1 mM soak, 2 h, pH 8.

In assay [2] the target is T1, TdcF. The experiment in a line: X-ray crystal structure, no ligand added (as isolated). It counts as binding. Conditions: 1.6 Å; inter-subunit site C only; putative identity from density, threonine an alternative.

The structures appear in SMILES notation.

Here are results for three molecules from PMC1884159, “The crystal structure of Escherichia coli TdcF, a member of the highly conserved YjgF/YER057c/UK114 family” (BMC Structural Biology, 2007).

T1 sequence (P0AGL2 whole entry): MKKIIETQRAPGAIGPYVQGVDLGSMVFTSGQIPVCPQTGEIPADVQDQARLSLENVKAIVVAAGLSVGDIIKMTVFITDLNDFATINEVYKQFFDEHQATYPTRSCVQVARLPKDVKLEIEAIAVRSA

Regarding `CCC(=O)C(=O)O` [2KT, 2-ketobutyrate], at TdcF [1] (1.6 Å, inter-subunit sites A, B and C occupied), the “X-ray crystal structure, crystal soak” value was “clear density for a 2-ketobutyrate ligand in each of the three binding sites”. As for `CCC(=O)O` [PPI, propionate], at TdcF [1] (2.45 Å, inter-subunit sites B and C occupied), the “X-ray crystal structure, crystal soak” value was “a propionate molecule could be placed with confidence in both”. For the molecule `N[C@@H](CO)C(=O)O` [SER, serine], on TdcF [2], the “X-ray crystal structure, no ligand added (as isolated)” value is reported as “with serine as the ligand with its side-chain in two alternative conformations of equal occupancy”.
